Among the data in patent publication US20240376094A2, “SELECTIVE BCL-XL PROTAC COMPOUNDS AND METHODS OF USE” (Les Laboratoires Servier, priority 2021, published 2024) are IC50, remaining activity and DC50 values, retold here.

Common to all, as to assay type: cell-based
For experiment [1], the system named is MOLT-4 cells. Nature of the experiment: MOLT-4 cell viability, MTT assay. Conditions: Homo sapiens, MOLT-4, 48 h. An excerpt:
The MTT colorimetric assay is based on the mitochondrial reduction of tetrazolium salt by living cells. The viable cell number is proportional to the production of formazan salts, which can be read spectrophotometrically at 540 nm. The CTG luminescent assay (CellTiter GLO, Promega) is based on a reagent which lyses cells and measures total adenosine triphosphate (ATP) content. The viable cell number is proportional to the production of ATP.
MOLT-4 cells were purchased from ATCC and cultivated in RPMI 1640 supplemented with 10% heat inactivated fetal bovine serum, penicillin (100 IU/mi), streptomycin (100 μg/ml) and L-glutamine (2 mM). Cells were cultured at 37° C. in a humidified atmosphere containing 5% […].
For MTT assay, cells were seeded in 96 microwell plates (150 μL per well) and exposed to the compounds for 48 h (3.16 fold serially diluted; 9 concentrations each, triplicates). At the end of incubation time, 15 μL of MTT solution (5 mg/ml) were added per well and the cells were incubated for another 4 h. Then, 100 μL of 10% Sodium Dodecyl Sulfate (SDS)/HCl 10 mM were added per well and the plate was incubated overnight, before measurement of optical density at 540 nm.
IC50, were calculated using standard four-parametric curve fitting. IC50 is defined as the compound concentration at which the MTT or CTG signal is reduced to 50% of that measured for the control. Results shown in Table 14 represent the mean of at least 2 independent experiments.

Experiment [2] has as its target T1, Bcl-xL (Homo sapiens, UniProt Q07817).
T1 construct: Measured levels of Bcl-xL protein of HCT116 cells treated with the tested compounds; host or cells: HCT116
Put plainly: HCT116 Bcl-xL degradation, capillary-based immunoassay (WES). Conditions: for remaining activity at 0.01 µM / remaining activity at 0.1 µM: HCT-116, 24 h, % of untreated cells; for remaining activity at 0.01 µM: HCT116, 10 nM; for remaining activity at 0.1 µM: HCT116, 100 nM; for DC50: HCT116, 24 h, 9-point serial dilution. In a few lines: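 HCT116 cells treated 24 h with compound at 10/100 nM and/or 9-point dilution (quadruplicates), then lysed. Bcl-xL measured by capillary WES immunoassay, normalized to cofilin and expressed as % of untreated cells. DC50 from four-parameter curve fit.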

Experiment [3] has as its system MOLT-4 cells. Nature of the experiment: MOLT-4 cell viability, CTG assay. Particulars: Homo sapiens, MOLT-4, 48 h. In a few lines:
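Cells grown in RPMI 1640 with 10% FBS at 37° C, 5% CO2, then exposed to compounds for 48 h (11-point 5-fold dilution, triplicates). ATP measured by CellTiter-Glo luminescence; IC50 from four-parameter fit versus control, mean of ≥2 independent experiments.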

T1 sequence (Q07817 whole entry): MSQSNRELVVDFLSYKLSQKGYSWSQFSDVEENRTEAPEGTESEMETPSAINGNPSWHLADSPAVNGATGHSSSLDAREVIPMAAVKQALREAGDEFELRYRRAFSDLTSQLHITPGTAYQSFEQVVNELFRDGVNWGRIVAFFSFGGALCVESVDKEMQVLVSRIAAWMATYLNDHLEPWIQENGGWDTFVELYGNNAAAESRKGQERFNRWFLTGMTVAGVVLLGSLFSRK

As for `Cc1ncsc1-c1ccc([C@H](C)NC(=O)C2C[C@@H](O)CN2C(=O)C(NC(=O)CCCCCN(C)CCOC23CC4(C)CC(C)(CC(Cn5ncc(-c6ccc(N7CCCc8c7nnc(Nc7nc9ccccc9s7)c8C)nc6C(=O)O)c5C)(C4)C2)C3)C(C)(C)C)cc1` (stereo in doubt) [Example 8, 6-[3-(1,3-benzothiazol-2-ylamino)-4-methyl-6,7-dihydro-5H-pyrido[2,3-c]pyridazin-8-yl]-3-[1-[[3-[2-[[6-[[(1S)-1-[(2S,4R)-4-hydroxy-2-[[(1S)-1-[4-(4-methylthiazol-5-yl)phenyl]ethyl]carbamoyl]pyrrolidine-1-carbonyl]-2,2-dimethyl-propyl]amino]-6-oxo-hexyl]-methyl-amino]ethoxy]-5,7-dimethyl-1-adamantyl]methyl]-5-methyl-pyrazol-4-yl]pyridine-2-carboxylic acid], half-maximal inhibition in experiment [1] (IC50) was put at 6.56 nM. For the same compound, in experiment [2], the remaining activity (in general, the share of the control activity or signal that is left under treatment) at 0.01 µM was 54% and the remaining activity at 0.1 µM worked out at 37%. The IC50 (in general, the concentration needed to halve the response being measured) in experiment [3] stood at 34.3 nM.
Regarding `Cc1cc(N(CCCCCn2cc(COCCOCCOCCNC(=O)COc3cccc4c3C(=O)N(C3CCC(=O)NC3=O)C4=O)nn2)c2ccc(-c3cnn(CC45CC6(C)CC(C)(C4)CC(OCCN(C)C)(C6)C5)c3C)c(C(=O)O)n2)nnc1Nc1nc2ccccc2s1` (stereo not shown) [Example 63, 6-[[6-(1,3-benzothiazol-2-ylamino)-5-methyl-pyridazin-3-yl]-[5-[4-[2-[2-[2-[[2-[2-(2,6-dioxo-3-piperidyl)-1,3-dioxo-isoindolin-4-yl]oxyacetyl]amino]ethoxy]ethoxy]ethoxymethyl]triazol-1-yl]pentyl]amino]-3-[1-[[3-[2-(dimethylamino)ethoxy]-5,7-dimethyl-1-adamantyl]methyl]-5-methyl-pyrazol-4-yl]pyridine-2-carboxylic acid], 86.4 nM corresponded to half-maximal inhibition in experiment [1] (IC50). In addition, in experiment [2], half-maximal degradation (DC50) was put at 53 nM, the remaining activity at 0.01 µM was 61% and the remaining activity at 0.1 µM amounted to 39%.
In experiment [1], `Cc1cc(N(CCCCCn2cc(COCCOCCNc3cccc4c3C(=O)N(C3CCC(=O)NC3=O)C4=O)nn2)c2ccc(-c3cnn(CC45CC6(C)CC(C)(C4)CC(OCCN(C)C)(C6)C5)c3C)c(C(=O)O)n2)nnc1Nc1nc2ccccc2s1` (stereo not shown) [Example 61, 6-[[6-(1,3-benzothiazol-2-ylamino)-5-methyl-pyridazin-3-yl]-[5-[4-[2-[2-[[2-(2,6-dioxo-3-piperidyl)-1,3-dioxo-isoindolin-4-yl]amino]ethoxy]ethoxymethyl]triazol-1-yl]pentyl]amino]-3-[1-[[3-[2-(dimethylamino)ethoxy]-5,7-dimethyl-1-adamantyl]methyl]-5-methyl-pyrazol-4-yl]pyridine-2-carboxylic acid] gave a 50% inhibitory concentration (IC50) of 16.4 nM. Moreover, in experiment [2], the DC50 (usually the concentration at which degradation of the target reaches its halfway point) worked out at 7.49 nM, the remaining activity at 0.01 µM is 46% and the remaining activity at 0.1 µM turned out to be 16%.
`CNCC#Cc1ccc(OCCCc2sc(N(CCCc3cn(CCOCCOCCOCCNC(=O)COc4cccc5c4C(=O)N(C4CCC(=O)NC4=O)C5=O)nn3)c3cc(C)c(Nc4nc5ccccc5s4)nn3)nc2C(=O)O)c(F)c1` (stereo not shown) [Example 27, 2-[[6-(1,3-benzothiazol-2-ylamino)-5-methyl-pyridazin-3-yl]-[3-[1-[2-[2-[2-[2-[[2-[2-(2,6-dioxo-3-piperidyl)-1,3-dioxo-isoindolin-4-yl]oxyacetyl]amino]ethoxy]ethoxy]ethoxy]ethyl]triazol-4-yl]propyl]amino]-5-[3-[2-fluoro-4-[3-(methylamino)prop-1-ynyl]phenoxy]propyl]thiazole-4-carboxylic acid] came in with an IC50 in experiment [1] of 669 nM. For the same compound, in experiment [2], the remaining activity at 0.01 µM was determined as 60% and the remaining activity at 0.1 µM amounted to 49%.
Consider `Cc1c(Nc2nc3ccccc3s2)nnc2c1CCCN2c1ccc(-c2cnn(CC34CC5(C)CC(C)(C3)CC(OCCN(C)CCCCCCCCCCCCOc3ccc6c(c3)C(=O)N(C3CCC(=O)NC3=O)C6=O)(C5)C4)c2C)c(C(=O)O)n1` (stereo not shown) [Example 140, 6-[3-(1,3-benzothiazol-2-ylamino)-4-methyl-6,7-dihydro-5H-pyrido[2,3-c]pyridazin-8-yl]-3-[1-[[3-[2-[12-[2-(2,6-dioxo-3-piperidyl)-1,3-dioxo-isoindolin-5-yl]oxydodecyl-methyl-amino]ethoxy]-5,7-dimethyl-1-adamantyl]methyl]-5-methyl-pyrazol-4-yl]pyridine-2-carboxylic acid], for which the IC50 in experiment [1] was found to be 0.311 nM. Also, it took 3.08 nM to reach half-maximal degradation in experiment [2] (DC50).
Consider `Cc1ncsc1-c1ccc(CNC(=O)[C@@H]2C[C@@H](O)CN2C(=O)[C@@H](NC(=O)CCCCCCC(=O)N2CCN(CC#Cc3ccc(OCCCc4sc(N5CCCc6c5nnc(Nc5nc7ccccc7s5)c6C)nc4C(=O)O)c(F)c3)CC2)C(C)(C)C)cc1` [Example 20, 2-[3-(1,3-benzothiazol-2-ylamino)-4-methyl-6,7-dihydro-5H-pyrido[2,3-c]pyridazin-8-yl]-5-[3-[2-fluoro-4-[3-[4-[8-[[(1S)-1-[(2S,4R)-4-hydroxy-2-[[4-(4-methylthiazol-5-yl)phenyl]methylcarbamoyl]pyrrolidine-1-carbonyl]-2,2-dimethyl-propyl]amino]-8-oxo-octanoyl]piperazin-1-yl]prop-1-ynyl]phenoxy]propyl]thiazole-4-carboxylic acid], for which, in experiment [1], the IC50 came to 4.49 nM. For the same compound, in experiment [2], the remaining activity at 0.01 µM came out at 51% and the remaining activity at 0.1 µM was 31%.
`Cc1ncsc1-c1ccc(CNC(=O)[C@@H]2C[C@@H](O)CN2C(=O)[C@@H](NC(=O)CCCC(=O)N2CCN(CC#Cc3ccc(OCCCc4sc(N5CCCc6c5nnc(Nc5nc7ccccc7s5)c6C)nc4C(=O)O)c(F)c3)CC2)C(C)(C)C)cc1` [Example 18, 2-[3-(1,3-benzothiazol-2-ylamino)-4-methyl-6,7-dihydro-5H-pyrido[2,3-c]pyridazin-8-yl]-5-[3-[2-fluoro-4-[3-[4-[5-[[(1S)-1-[(2S,4R)-4-hydroxy-2-[[4-(4-methylthiazol-5-yl)phenyl]methylcarbamoyl]pyrrolidine-1-carbonyl]-2,2-dimethyl-propyl]amino]-5-oxo-pentanoyl]piperazin-1-yl]prop-1-ynyl]phenoxy]propyl] thiazole-4-carboxylic acid] returned an IC50 in experiment [1] of 2.72 nM. In experiment [2], it took 6.6 nM to reach half-maximal degradation (DC50), the remaining activity at 0.01 µM was found to be 52% and the remaining activity at 0.1 µM came out at 52%.
In the case of `Cc1cc(N(CCCCCn2cc(COCCOCCOCCNc3cccc4c3C(=O)N(C3CCC(=O)NC3=O)C4=O)nn2)c2ccc(-c3cnn(C[C@@]45C[C@]6(C)C[C@](C)(C4)C[C@](OCCN(C)C)(C6)C5)c3C)c(C(=O)O)n2)nnc1Nc1nc2ccccc2s1` (stereo partly shown) [Example 62, 6-[[6-(1,3-benzothiazol-2-ylamino)-5-methyl-pyridazin-3-yl]-[5-[4-[2-[2-[2-[[2-(2,6-dioxo-3-piperidyl)-1,3-dioxo-isoindolin-4-yl]amino]ethoxy]ethoxy]ethoxymethyl]triazol-1-yl]pentyl]amino]-3-[1-[[3-[2-(dimethylamino)ethoxy]-5,7-dimethyl-1-adamantyl]methyl]-5-methyl-pyrazol-4-yl]pyridine-2-carboxylic acid], the midpoint of inhibition in experiment [1], the IC50, lay at 24.1 nM. In experiment [2], the half-maximal degradation concentration (DC50) amounted to 13.6 nM, the remaining activity at 0.01 µM was 47% and the remaining activity at 0.1 µM was 7%.
For the compound `Cc1cc(N(CCCCCn2cc(COCCOCCOCCOCCNc3cccc4c3C(=O)N(C3CCC(=O)NC3=O)C4=O)nn2)c2ccc(-c3cnn(CC45CC6(C)CC(C)(C4)CC(OCCN(C)C)(C6)C5)c3C)c(C(=O)O)n2)nnc1Nc1nc2ccccc2s1` (stereo not shown) [Example 153, 6-[[6-(1,3-benzothiazol-2-ylamino)-5-methyl-pyridazin-3-yl]-[5-[4-[2-[2-[2-[2-[[2-(2,6-dioxo-3-piperidyl)-1,3-dioxo-isoindolin-4-yl]amino]ethoxy]ethoxy]ethoxy]ethoxymethyl]triazol-1-yl]pentyl]amino]-3-[1-[[3-[2-(dimethylamino)ethoxy]-5,7-dimethyl-1-adamantyl]methyl]-5-methyl-pyrazol-4-yl]pyridine-2-carboxylic acid], the IC50 in experiment [1] was determined as 27.5 nM. In experiment [2], this compound had a remaining activity at 0.01 µM of 59% and a remaining activity at 0.1 µM of 40%.
